biological target: Recombinant Btk (Homo sapiens (Human), UniProt Q06187); assay: BTK kinase assay (TR-FRET); conditions: IC50 (nM) Btk, 1 hour pre-incubation, ATP at Km
Sequence (Q06187 whole entry): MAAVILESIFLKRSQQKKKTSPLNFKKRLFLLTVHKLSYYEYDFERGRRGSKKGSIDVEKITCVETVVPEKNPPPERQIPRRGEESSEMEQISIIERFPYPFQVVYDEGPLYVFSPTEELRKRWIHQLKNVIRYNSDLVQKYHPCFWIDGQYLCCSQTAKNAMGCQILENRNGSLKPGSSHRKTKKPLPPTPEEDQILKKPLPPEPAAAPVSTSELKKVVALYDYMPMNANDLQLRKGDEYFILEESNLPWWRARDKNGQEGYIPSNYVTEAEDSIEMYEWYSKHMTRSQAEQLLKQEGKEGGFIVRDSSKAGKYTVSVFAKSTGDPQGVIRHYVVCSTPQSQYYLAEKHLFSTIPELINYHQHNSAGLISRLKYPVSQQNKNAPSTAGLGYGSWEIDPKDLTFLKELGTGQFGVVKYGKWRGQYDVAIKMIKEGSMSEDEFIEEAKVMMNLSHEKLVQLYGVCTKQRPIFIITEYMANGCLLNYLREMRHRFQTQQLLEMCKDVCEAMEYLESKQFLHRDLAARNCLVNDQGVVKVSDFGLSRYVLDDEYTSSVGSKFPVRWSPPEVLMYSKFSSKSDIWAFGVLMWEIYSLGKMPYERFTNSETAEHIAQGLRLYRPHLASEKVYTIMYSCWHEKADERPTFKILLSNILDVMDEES

With `C=CC(=O)Nc1ccccc1C1CCNc2c(C(N)=O)c(-c3ccc(OCc4ccccc4)cc3)nn21` (single isomer, unassigned) [Compound 10a] the IC50 was 0.51 nM.

same assay, conditions: read-out: IC50 (nM) Btk; 1 hour pre-incubation, ATP at Km

Compared with `C=CC(=O)N1CC[C@@H]2C(CNc3c(C(N)=O)c(-c4ccc(Oc5ccccc5)cc4)nn32)C1` (single isomer, unassigned) [Compound 30a], `CC#CC(=O)N1CC(C2CCNc3c(C(N)=O)c(-c4ccc(Oc5ccccc5)cc4)nn32)C1` (centres unmarked) [Compound 184, 7-(1-(But-2-ynoyl)azetidin-3-yl)-2-(4-phenoxyphenyl)-4,5,6,7-tetrahydropyrazolo[1,5-a]pyrimidine-3-carboxamide] is 7.1-fold higher in IC50: 0.66 nM for the first, 4.7 nM for the second.

Compared with `N#CCC(=O)N1CCC([C@@H]2CCNc3c(C(N)=O)c(-c4ccc(Oc5ccccc5)cc4)nn32)CC1` [Compound 180, (S)-7-(1-(2-Cyanoacetyl)piperidin-4-yl)-2-(4-phenoxyphenyl)-4,5,6,7-tetrahydropyrazolo[1,5-a]pyrimidine-3-carboxamide], `CCC#CC(=O)N1CCC([C@@H]2CCNc3c(C(N)=O)c(-c4ccc(Oc5ccccc5)cc4)nn32)CC1` [Compound 186, (S)-7-(1-(Pent-2-ynoyl)piperidin-4-yl)-2-(4-phenoxyphenyl)-4,5,6,7-tetrahydropyrazolo[1,5-a]pyrimidine-3-carboxamide] is 79-fold lower in IC50: 87 nM for the first, 1.1 nM for the second.

Going from `N#CC(=CC1CC1)C(=O)N1CCC([C@@H]2CCNc3c(C(N)=O)c(-c4ccc(Oc5ccccc5)cc4)nn32)CC1` [Compound 181, (S)-7-(1-(2-cyano-3-cyclopropylacryloyl)piperidin-4-yl)-2-(4-phenoxyphenyl)-4,5,6,7-tetrahydropyrazolo[1,5-a]pyrimidine-3-carboxamide] to `NC(=O)c1c(-c2ccc(Oc3ccccc3)cc2)nn2c1NCC[C@H]2C1CCN(C(=O)C#CCO)CC1` [Compound 191, (S)-7-(1-(4-Hydroxybut-2-ynoyl)piperidin-4-yl)-2-(4-phenoxyphenyl)-4,5,6,7-tetrahydropyrazolo[1,5-a]pyrimidine-3-carboxamide], the IC50 falls from 25 nM to 0.67 nM (37-fold). The second is the more potent here.

Compared with `N#CN1CCC([C@@H]2CCNc3c(C(N)=O)c(-c4ccc(Oc5ccccc5)cc4)nn32)CC1` [Compound 182, (S)-7-(1-cyanopiperidin-4-yl)-2-(4-phenoxyphenyl)-4,5,6,7-tetrahydropyrazolo[1,5-a]pyrimidine-3-carboxamide], `COCC#CC(=O)N1CCC([C@@H]2CCNc3c(C(N)=O)c(-c4ccc(Oc5ccccc5)cc4)nn32)CC1` [Compound 192, (S)-7-(1-(4-Methoxybut-2-ynoyl)piperidin-4-yl)-2-(4-phenoxyphenyl)-4,5,6,7-tetrahydropyrazolo[1,5-a]pyrimidine-3-carboxamide] is 140-fold lower in IC50: 124 nM for the first, 0.91 nM for the second. The second is the more potent here.

First: CC#CC(=O)NCC1CCNc2c(C(N)=O)c(-c3ccc(Oc4ccccc4)cc3)nn21 (centres unmarked) [Compound 185, 7-(But-2-ynamidomethyl)-2-(4-phenoxyphenyl)-4,5,6,7-tetrahydropyrazolo[1,5-a]pyrimidine-3-carboxamide]
Second: CC#CC(=O)NCC1CCNc2c(C(N)=O)c(-c3ccc(Oc4ccc(F)cc4F)cc3)nn21 (centres unmarked) [Compound 190, 7-(But-2-ynamidomethyl)-2-(4-(2,4-difluorophenoxy)phenyl)-4,5,6,7-tetrahydropyrazolo[1,5-a]pyrimidine-3-carboxamide]
The IC50 of the first is 8.8-fold lower: 4.3 nM for the first, 38 nM for the second. The first is the more potent here.

First: NC(=O)c1c(-c2ccc(Oc3ccccc3)cc2)nn2c1NCC[C@H]2C1CCN(C(=O)C#CCN2CCCC2)CC1 [Compound 187, (S)-2-(4-Phenoxyphenyl)-7-(1-(4-(pyrrolidin-1-yl)but-2-ynoyl)piperidin-4-yl)-4,5,6,7-tetrahydropyrazolo[1,5-a]pyrimidine-3-carboxamide]
Second: CN(C)CC#CC(=O)N1CCC([C@@H]2CCNc3c(C(N)=O)c(-c4ccc(Oc5ccccc5)cc4)nn32)CC1 [Compound 188, (S)-7-(1-(4-(Dimethylamino)but-2-ynoyl)piperidin-4-yl)-2-(4-phenoxyphenyl)-4,5,6,7-tetrahydropyrazolo[1,5-a]pyrimidine-3-carboxamide]
The IC50 of the first is 1.9-fold higher: 2.1 nM for the first, 1.1 nM for the second.

`CC#CC(=O)N1CC(C2CCNc3c(C(N)=O)c(-c4ccc(Oc5ccc(F)cc5F)cc4)nn32)C1` (centres unmarked) [Compound 189, 7-(1-(But-2-ynoyl)azetidin-3-yl)-2-(4-(2,4-difluorophenoxy)phenyl)-4,5,6,7-tetrahydropyrazolo[1,5-a]pyrimidine-3-carboxamide] and `CC#CC(=O)N1CCC(C2CCNc3c(C(N)=O)c(-c4ccc(Oc5ccc(F)cc5)cc4)nn32)CC1` (centres unmarked) [Compound 194, 7-(1-(But-2-ynoyl)piperidin-4-yl)-2-(4-(4-fluorophenoxy)phenyl)-4,5,6,7-tetrahydropyrazolo[1,5-a]pyrimidine-3-carboxamide] are within 1.5-fold of each other in IC50: 42 nM for the first, 45 nM for the second.

First: CCCC#CC(=O)N1CCC([C@@H]2CCNc3c(C(N)=O)c(-c4ccc(Oc5ccccc5)cc4)nn32)CC1 [Compound 193, (S)-7-(1-(Hex-2-ynoyl)piperidin-4-yl)-2-(4-phenoxyphenyl)-4,5,6,7-tetrahydropyrazolo[1,5-a]pyrimidine-3-carboxamide]
Second: CC#CC(=O)N1CCC(C2CCNc3c(C(N)=O)c(-c4ccc(Oc5cccc(Cl)c5)cc4)nn32)CC1 (centres unmarked) [Compound 195, 7-(1-(But-2-ynoyl)piperidin-4-yl)-2-(4-(3-chlorophenoxy)phenyl)-4,5,6,7-tetrahydropyrazolo[1,5-a]pyrimidine-3-carboxamide]
The IC50 of the first is 2.1-fold lower: 3.9 nM for the first, 8 nM for the second. The first is the more potent here.

Molecule `C=CC(=O)Nc1ccccc1C1CCNc2c(C(N)=O)c(-c3ccc(F)c(Cl)c3)nn21` (centres unmarked) [Compound 196, 7-(2-Acrylamidophenyl)-2-(3-chloro-4-fluorophenyl)-4,5,6,7-tetrahydropyrazolo[1,5-a]pyrimidine-3-carboxamide] has an IC50 of 1.1 nM.

biological target: phosphorylated Btk at Tyr223 in Ramos cells (Homo sapiens (Human), UniProt Q06187); assay: BTK pY223 cellular assay (HTRF) in Ramos cells; format: cell-based; conditions: 1 hour compound incubation, pervanadate or Na3VO4 stimulation
Sequence (Q06187 whole entry): as above
Experimental: Btk pY223 cellular assay is a HTRF based assay intended to determine the endogenous levels of phosphorylated Btk at Tyr223.
Briefly, Ramos cells were serum starved in 0.5% FBS-containing RPMI1640 for 2 hours. Following starvation, the cells were incubated with compounds to be detected at various concentrations in a CO2 incubator for 1 hour. After incubation, cells were stimulated with 1 mM pervanadate (PV) or Na3VO4 (OV) for 20 min. Then, the cells were spinned down and lysed with 1× lysis buffer at RT for 10 min (4× lysis buffer supplied in the kit). During the incubation, 1× antibody mix was prepared by diluting anti-Btk-d2 and anti-pBtk-K in detection buffer (supplied in the kit). […] After that, 18 ul of cell lysate was transferred to the assay plate pre-loaded with antibody solution. After mixing gently and spinning briefly, the plate was sealed up and kept in dark at RT for 18 hours. […] IC50 values were calculated with GraphPad Prism software using the sigmoidal dose-response function.

Compared with `C=CC(=O)Nc1ccccc1C1CCNc2c(C(N)=O)c(-c3ccc(OCc4ccccc4)cc3)nn21` (single isomer, unassigned) [Compound 10a], `C=CC(=O)N1CC[C@@H]2C(CNc3c(C(N)=O)c(-c4ccc(Oc5ccccc5)cc4)nn32)C1` (single isomer, unassigned) [Compound 30a] is 2.5-fold higher in IC50: 2.2 nM for the first, 5.6 nM for the second. The first is the more potent here.
